Marks after values point to notes of the source that are not given here.
Columns and labels:
Type in all cases: in vivo
[1] = tested on: Botrytis cinerea; assay: Test A: preventive spray on tomato seedlings, visual disease rating (tomato Botrytis)
Text: (§1) General protocol for preparing test suspensions for Tests A-F: the test compounds were first dissolved in acetone in an amount equal to 3% of the final volume and then suspended at the desired concentration (in ppm) in acetone and purified water (50/50 mix by volume) containing 250 ppm of the surfactant Trem® 014 (polyhydric alcohol esters). The resulting test suspensions were then used in Tests A-F. Spraying a 200 ppm test suspension to the point of run-off on the test plants was the equivalent of a rate of 800 g/ha. Unless otherwise indicated, the rating values indicate a 200 ppm test suspension was used. (An asterisk “*” next to the rating value indicates a 40 ppm test suspension was used.)
The test suspension was sprayed to the point of run-off on tomato seedlings. The following day the seedlings were inoculated with a spore suspension of Botrytis cinerea (the causal agent of tomato Botrytis) and incubated in saturated atmosphere at 20° C. for 48 h, and then moved to a growth chamber at 24° C. for 3 days, after which time visual disease ratings were made.
(§2) Results for Tests A-F are given in Table A. In the Table, a rating of 100 indicates 100% disease control and a rating of 0 indicates no disease control (relative to the controls). A dash (-) indicates no test results. An asterisk “*” next to the rating value indicates a 40 ppm test suspension was used.

[2] = tested on: Septoria tritici; assay: Test D: preventive spray on wheat seedlings, visual disease rating (wheat leaf blotch)
Text: as §1
The test suspension was sprayed to the point of run-off on wheat seedlings. The following day the seedlings were inoculated with a spore suspension of Septoria tritici (the causal agent of wheat leaf blotch) and incubated in saturated atmosphere at 24° C. for 48 h, and then moved to a growth chamber at 20° C. for 19 days, after which time visual disease ratings were made.
as §2

[3] = tested on: Puccinia recondite f. sp. tritici; assay: Test E2: preventive spray on wheat seedlings, visual disease rating (wheat leaf rust)
Text: as §1
The test suspension was sprayed to the point of run-off on wheat seedlings. The following day the seedlings were inoculated with a spore suspension of Puccinia recondite f. sp. tritici (the causal agent of wheat leaf rust) and incubated in a saturated atmosphere at 20° C. for 24 h, and then moved to a growth chamber at 20° C. for 7 days, after which time visual disease ratings were made.
as §2

[4] = tested on: Blumeria graminis f. sp. tritici; assay: Test F: preventive spray on wheat seedlings, visual disease rating (wheat powdery mildew)
Text: as §1
The test suspension was sprayed to the point of run-off on wheat seedlings. The following day the seedlings were inoculated with a spore dust of Blumeria graminis f. sp. tritici, (also known as Erysiphe graminis f. sp. tritici, the causal agent of wheat powdery mildew) and incubated in a growth chamber at 20° C. for 8 days, after which time visual disease ratings were made.
as §2

[5] = no asterisk: standard test suspension, not 40 ppm, 100 = 100% disease control, 0 = none
[6] = no asterisk: standard test suspension, not 40 ppm
[7] = asterisk: 40 ppm test suspension

Structure (SMILES)	Test A rating (% disease control) [1, 5] [%]	Test D rating (% disease control) [2, 6] [%]	Test E2 rating (% disease control) [3, 6] [%]	Test F rating (% disease control) [4, 6] [%]	Test A rating (% disease control) [1, 7]	Test D rating (% disease control) [2, 7]	Test E2 rating (% disease control) [3, 7]	Test F rating (% disease control) [4, 7]	other results
Cn1nc(Br)c(C(O)c2ccc(F)cc2F)c1-c1c(F)cccc1Cl (centres unmarked) [compound 131]	98	100	100	98					
Cc1nn(C)c(-c2c(F)cccc2Cl)c1C(SC#N)c1ccc(F)cc1Cl (centres unmarked) [Compound 121]					97* %	100* %	100* %	100* %	
Cc1nn(C)c(-c2ccc(Cl)cc2Cl)c1C(O)c1ccc(F)cc1F (centres unmarked) [compound 97]	99	100	100	99					
COc1nn(C)c(-c2c(F)cccc2F)c1C(O)c1ccc(F)cc1F (centres unmarked) [compound 156]					100* %	100* %	99* %	99* %	
Cc1cc(C)n(-c2c(C(O)c3ccc(F)cc3F)c(C)nn2C)n1 (centres unmarked) [compound 159]	0	0	0	0					
COc1nn(C)c(-c2c(F)cc(F)cc2F)c1C(O)c1c(F)cccc1Cl (centres unmarked) [compound 155]					99* %	100* %	100* %	99* %	
Cc1nn(C)c(-c2c(Cl)cncc2Cl)c1C(O)c1ccc(F)cc1Cl (centres unmarked) [compound 98]					94* %	100* %	100* %	100* %	
Cc1nn(C)c(-c2c(F)cc(C#N)cc2F)c1C(O)c1ccc(F)cc1F (centres unmarked) [compound 112]	80	100	100	97					
Cn1ncc(C(O)c2ccc(F)cc2Cl)c1-c1c(F)cccc1F (centres unmarked) [compound 130]	100	100	100	100					
Cn1nc(Br)c(C(O)c2ccc(F)cc2F)c1-c1c(F)cccc1F (centres unmarked) [compound 124]	99	100	100	100					
Cn1nc(Br)c(C(O)c2ccc(F)cc2Cl)c1-c1c(F)cccc1Cl (centres unmarked) [compound 148]	100	100	100	99					
COc1cc(F)c(-c2c(C(O)c3c(F)cc(F)cc3F)c(C)nn2C)c(F)c1 (centres unmarked) [compound 173]					87* %	100* %	100* %	95* %	
Cn1nc(Cl)c(C(O)c2ccc(F)cc2Cl)c1-c1c(F)cccc1F (centres unmarked) [compound 137]	100	100	100	100					
COc1cc(F)c(-c2c(C(O)c3ccc(F)cc3F)c(C)nn2C)c(F)c1 (centres unmarked) [compound 172]					99* %	100* %	100* %	100* %	
Cc1nn(C)c(-c2ccc(F)cc2Cl)c1C(O)c1ccc(F)cc1I (centres unmarked) [compound 99]	97	100	100	99					
COc1ccc(C(O)c2c(OC)nn(C)c2-c2c(F)cccc2F)c(F)c1 (centres unmarked) [compound 161]					94* %	100* %	92* %	90* %	
Cc1nn(C)c(-c2c(F)cccc2F)c1C(SC#N)c1c(F)cc(F)cc1F (centres unmarked) [Compound 116]					0* %	78* %	9* %	0* %	
COc1ccc(C(O)c2c(C)nn(C)c2-c2ccc(F)cc2Cl)c(Cl)c1 (centres unmarked) [compound 169]					0* %	68* %	88* %	0* %	
COc1nn(C)c(-c2c(F)cccc2F)c1C(O)c1c(F)ccc(F)c1Cl (centres unmarked) [compound 139]					83* %	100* %	80* %	96* %	
COc1nn(C)c(-c2c(F)cccc2F)c1C(O)c1ccc(F)cc1C (stereo not drawn) [Compound 157, 5-(2,6-difluorophenyl)-α-(4-fluoro-2-methylphenyl)-3-methoxy-1-methyl-1H-pyrazole-4-methanol]									pest or weed control at 40 ppm ([1]; Botrytis cinerea, 120 h, asterisk: 40 ppm test suspension): 100%; pest or weed control at 40 ppm ([2]; Zymoseptoria tritici, 504 h, asterisk: 40 ppm test suspension): 100%; pest or weed control at 40 ppm ([3]; 192 h, asterisk: 40 ppm test suspension): 100%; pest or weed control at 40 ppm ([4]; Blumeria graminis, 192 h, asterisk: 40 ppm test suspension): 100%
COc1nn(C)c(-c2c(F)cc(Cl)cc2F)c1C(O)c1ccc(F)cc1Cl (centres unmarked) [compound 162]					99* %	100* %	86* %	64* %	
COc1nn(C)c(-c2c(F)cc(F)cc2F)c1C(O)c1ccccc1F (centres unmarked) [compound 154]	100	100	100	100					
Cc1nn(C)c(-c2ccc(F)cc2Br)c1C(O)c1ccc(F)cc1Cl (centres unmarked) [compound 95]					94* %	99* %	98* %	95* %	

— patent publication US8754115B2, “Fungicidal pyrazoles” (E I du Pont de Nemours and Company, priority 2010, dated 2014)
